From patent US20130303509A1, “NAMPT INHIBITORS” (AbbVie Inc., priority 2012, published 2013)

Each compound was assayed on PC3 cells (assay: NAMPT Cell Proliferation Assay). Conditions: Homo sapiens, PC-3, 120 h, 5 days incubation, cell viability by Cell Titer Glo.
Assay type: cell-based
Method in brief: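 Five-day CellTiter-Glo viability readout in PC3 cells grown in RPMI/10% heat-inactivated FBS. Compounds added after overnight attachment as a 10-fold dilution series, […]. Percent inhibition fitted to sigmoidal dose-response to derive IC50.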

| SMILES | IC50 [nM] |
| --- | --- |
| O=C(Nc1ccc(O[C@@H]2CCN(C(=O)c3ccc(F)cc3)C2)cc1)[C@H]1CCN(c2cccnn2)C1 [Example 777, (3S)-N-(4-{[(3R)-1-(4-fluorobenzoyl)pyrrolidin-3-yl]oxy}phenyl)-1-(pyridazin-3-yl)pyrrolidine-3-carboxamide] | 19.2 |
| O=C(Nc1ccc(O[C@@H]2CCN(C(=O)c3cc(F)cc(F)c3)C2)cc1)[C@H]1CCN(c2cccnn2)C1 [Example 778, (3S)-N-(4-{[(3R)-1-(3,5-difluorobenzoyl)pyrrolidin-3-yl]oxy}phenyl)-1-(pyridazin-3-yl)pyrrolidine-3-carboxamide] | 19.7 |
| CC(C)(C)C(=O)N1CC[C@@H](Oc2ccc(NC(=O)[C@H]3CCN(c4cccnn4)C3)cc2)C1 [Example 780, (3S)-N-(4-{[(3R)-1-(2,2-dimethylpropanoyl)pyrrolidin-3-yl]oxy}phenyl)-1-(pyridazin-3-yl)pyrrolidine-3-carboxamide] | 4.07 |
| O=C(Nc1ccc(O[C@@H]2CCN(C(=O)C3CCC(F)(F)CC3)C2)cc1)[C@H]1CCN(c2cccnn2)C1 [Example 781, (3S)-N-[4-({(3R)-1-[(4,4-difluorocyclohexyl)carbonyl]pyrrolidin-3-yl}oxy)phenyl]-1-(pyridazin-3-yl)pyrrolidine-3-carboxamide] | 10 |
| O=C(Nc1ccc(O[C@@H]2CCN(C(=O)CCC(F)(F)F)C2)cc1)[C@H]1CCN(c2cccnn2)C1 [Example 782, (3S)-1-(pyridazin-3-yl)-N-(4-{[(3R)-1-(4,4,4-trifluorobutanoyl)pyrrolidin-3-yl]oxy}phenyl)pyrrolidine-3-carboxamide] | 66.9 |
| CCCc1nc(-c2ccc(NC(=O)C3CN(c4cccnn4)C3)cc2)no1 [Example 784, N-[4-(5-propyl-1,2,4-oxadiazol-3-yl)phenyl]-1-(pyridazin-3-yl)azetidine-3-carboxamide] | 16 |
| O=C(Nc1ccc(C2CN(C(=O)c3cccc(F)c3)C2)cc1)[C@H]1CCN(c2cccnn2)C1 [Example 786, (3S)-N-{4-[1-(3-fluorobenzoyl)azetidin-3-yl]phenyl}-1-(pyridazin-3-yl)pyrrolidine-3-carboxamide] | 12 |
| O=C(Nc1ccc(C2CN(C(=O)c3ccc(F)cc3)C2)cc1)[C@H]1CCN(c2cccnn2)C1 [Example 787, (3S)-N-{4-[1-(4-fluorobenzoyl)azetidin-3-yl]phenyl}-1-(pyridazin-3-yl)pyrrolidine-3-carboxamide] | 63.9 |
| O=C(Nc1ccc(C2CN(C(=O)c3ccccc3)C2)cc1)[C@H]1CCN(c2cccnn2)C1 [Example 788, (3S)-N-[4-(1-benzoylazetidin-3-yl)phenyl]-1-(pyridazin-3-yl)pyrrolidine-3-carboxamide] | 7.59 |
| CC(C)(C)C(=O)N1CC(c2ccc(NC(=O)[C@H]3CCN(c4cccnn4)C3)cc2)C1 [Example 789, (3S)-N-{4-[1-(2,2-dimethylpropanoyl)azetidin-3-yl]phenyl}-1-(pyridazin-3-yl)pyrrolidine-3-carboxamide] | 28.4 |
| O=C(Nc1ccc(C2CN(C(=O)c3cc(F)cc(F)c3)C2)cc1)[C@H]1CCN(c2cccnn2)C1 [Example 790, (3S)-N-{4-[1-(3,5-difluorobenzoyl)azetidin-3-yl]phenyl}-1-(pyridazin-3-yl)pyrrolidine-3-carboxamide] | 74.6 |
| O=C(Nc1ccc(C2CN(C(=O)c3ccc(F)cc3F)C2)cc1)[C@H]1CCN(c2cccnn2)C1 [Example 792, (3S)-N-{4-[1-(2,4-difluorobenzoyl)azetidin-3-yl]phenyl}-1-(pyridazin-3-yl)pyrrolidine-3-carboxamide] | 8.8 |
| CC(C)(C)C(=O)N1CCC(c2ccc(NC(=O)[C@@H]3CCN(c4cccnn4)C3)cc2)CC1 [Example 795, (3R)—N-{4-[1-(2,2-dimethylpropanoyl)piperidin-4-yl]phenyl}-1-(pyridazin-3-yl)pyrrolidine-3-carboxamide] | 773 |
| O=C(Nc1ccc(OC2CCN(C(=O)c3ccccc3F)CC2)cc1)[C@H]1CCN(c2cccnn2)C1 [Example 797, (3S)-N-(4-{[1-(2-fluorobenzoyl)piperidin-4-yl]oxy}phenyl)-1-(pyridazin-3-yl)pyrrolidine-3-carboxamide] | 12.6 |
| CC1CC1C(=O)N1CCC(Oc2ccc(NC(=O)[C@H]3CCN(c4cccnn4)C3)cc2)CC1 (stereo partly drawn) [Example 802, (3S)-N-[4-({1-[(2-methylcyclopropyl)carbonyl]piperidin-4-yl}oxy)phenyl]-1-(pyridazin-3-yl)pyrrolidine-3-carboxamide] | 26.3 |

The remaining compounds from weak to strong by IC50, led by results:

| IC50 [nM] | SMILES |
| --- | --- |
| 329 | O=C(Nc1ccc(C2CCN(C(=O)c3ccccc3)CC2)cc1)[C@@H]1CCN(c2cccnn2)C1 [Example 793, (3R)—N-[4-(1-benzoylpiperidin-4-yl)phenyl]-1-(pyridazin-3-yl)pyrrolidine-3-carboxamide] |
| 196 | O=C(Nc1ccc(C2CCN(C(=O)c3ccccc3F)CC2)cc1)[C@@H]1CCN(c2cccnn2)C1 [Example 794, (3R)—N-{4-[1-(2-fluorobenzoyl)piperidin-4-yl]phenyl}-1-(pyridazin-3-yl)pyrrolidine-3-carboxamide] |
| 66.4 | O=C(Nc1ccc(OC2CCN(C(=O)c3cccc(F)c3)CC2)cc1)[C@H]1CCN(c2cccnn2)C1 [Example 798, (3S)-N-(4-{[1-(3-fluorobenzoyl)piperidin-4-yl]oxy}phenyl)-1-(pyridazin-3-yl)pyrrolidine-3-carboxamide] |
| 60 | O=C(Nc1ccc(OC2CCN(C(=O)c3ccc(F)cc3)CC2)cc1)[C@H]1CCN(c2cccnn2)C1 [Example 800, (3S)-N-(4-{[1-(4-fluorobenzoyl)piperidin-4-yl]oxy}phenyl)-1-(pyridazin-3-yl)pyrrolidine-3-carboxamide] |
| 25.5 | O=C(Nc1ccc(OC2CCN(C(=O)c3ccccc3)CC2)cc1)[C@H]1CCN(c2cccnn2)C1 [Example 799, (3S)-N-{4-[(1-benzoylpiperidin-4-yl)oxy]phenyl}-1-(pyridazin-3-yl)pyrrolidine-3-carboxamide] |
| 24.6 | CC(C)(C)C(=O)N1CCC(Oc2ccc(NC(=O)[C@H]3CCN(c4cccnn4)C3)cc2)CC1 [Example 801, (3S)-N-(4-{[1-(2,2-dimethylpropanoyl)piperidin-4-yl]oxy}phenyl)-1-(pyridazin-3-yl)pyrrolidine-3-carboxamide] |
| 11.7 | O=C(Nc1ccc(OC2CCN(C(=O)C3CCCCC3)CC2)cc1)[C@H]1CCN(c2cccnn2)C1 [Example 796, (3S)—N-(4-{[1-(cyclohexylcarbonyl)piperidin-4-yl]oxy}phenyl)-1-(pyridazin-3-yl)pyrrolidine-3-carboxamide] |
| 6.46 | O=C(Nc1ccc(O[C@@H]2CCN(C(=O)c3ccc(F)cc3F)C2)cc1)[C@H]1CCN(c2cccnn2)C1 [Example 783, (3S)-N-(4-{[(3R)-1-(2,4-difluorobenzoyl)pyrrolidin-3-yl]oxy}phenyl)-1-(pyridazin-3-yl)pyrrolidine-3-carboxamide] |
| 1.48 | Cc1ccccc1C(=O)N1CC[C@@H](Oc2ccc(NC(=O)[C@H]3CCN(c4cccnn4)C3)cc2)C1 [Example 779, (3S)-N-(4-{[(3R)-1-(2-methylbenzoyl)pyrrolidin-3-yl]oxy}phenyl)-1-(pyridazin-3-yl)pyrrolidine-3-carboxamide] |
| 1.17 | O=C(Nc1ccc(C2CN(C(=O)c3ccccc3F)C2)cc1)[C@H]1CCN(c2cccnn2)C1 [Example 785, (3S)—N-{4-[1-(2-fluorobenzoyl)azetidin-3-yl]phenyl}-1-(pyridazin-3-yl)pyrrolidine-3-carboxamide] |
